Columns and labels:
Assay type in all cases: cell-based
hAT1R [1] = target: T1, hAT1R (Homo sapiens, UniProt P30556); test: BRET β-arrestin2 biosensor assay, higher receptor expression (hAT1R 5 ng/well), HEK293 cells; conditions: for EC50: High AT1R Expression
T1 sequence (P30556 1-359): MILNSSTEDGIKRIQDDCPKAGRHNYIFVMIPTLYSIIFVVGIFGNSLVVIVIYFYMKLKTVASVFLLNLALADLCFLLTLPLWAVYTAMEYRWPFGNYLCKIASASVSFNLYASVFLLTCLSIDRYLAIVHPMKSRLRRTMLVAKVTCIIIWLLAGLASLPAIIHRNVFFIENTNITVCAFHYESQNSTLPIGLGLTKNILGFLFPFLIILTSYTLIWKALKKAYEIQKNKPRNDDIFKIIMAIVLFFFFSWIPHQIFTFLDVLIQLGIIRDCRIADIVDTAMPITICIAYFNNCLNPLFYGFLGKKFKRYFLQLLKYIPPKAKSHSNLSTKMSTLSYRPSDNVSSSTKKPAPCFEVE

AGTR1 = target: T2, AGTR1 (Homo sapiens, UniProt P30556); test: DiscoveRx β-arrestin2 recruitment assay (enzyme complementation, Pathunter CHO-K1 AGTR1 β-arrestin cell line); conditions: DiscoveRx β-arrestin2 recruitment
T2 construct: host or cells: Pathunter CHO-K1 AGTR1 β-arrestin cell line (CHO-K1)
T2 sequence (P30556 1-359): T1 sequence (P30556 1-359)
Procedure, shortened: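 CHO-K1 cells expressing AGTR1 with β-arrestin2 enzyme-complementation reporter, plated 14-16 h ahead in 1% serum medium, then exposed to compounds for 90 min at 37° C. Chemiluminescence read after 1 h detection. EC50 (agonist) or IC50 (antagonist) from 4-parameter logistic fit; activity as percentage of All maximal effect.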

hAT1R [2] = target: T1, hAT1R; test: BRET Gq biosensor assay, agonist response, HEK293 cells; conditions: section of the 42nd table directly before the BRET P63 section
Procedure, shortened: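 HEK293 cells co-transfected with signal-peptide-optimized hAT1R plus Gαq-Rluc, Gβ1 and GFP-Gγ1, assayed 48 h later in Tyrode's buffer pH 7.4. Coelenterazine (2 μM final) added, then compound; BRET2 (515/410 nm) read after 5 min at room temperature. EC50 by 4-parameter fit, normalized to unstimulated (0%) and maximal AngII (100%).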

Row | SMILES | BRET β-Arrestin2 High AT1R Expression Ymax (%) (hAT1R [1]) | EC50 (hAT1R [1]) | EC50 (AGTR1) | DiscoveRx β-arrestin2 Ymax (%) (AGTR1; maximal response) | EC50 (hAT1R [2]) | DiscoveRx β-arrestin2 Ymax (%) (AGTR1)
1 | CCCCc1nc(Cl)c(C(=O)O)n1Cc1ccc(-c2cc(N3CCCC(F)(F)C3)ccc2-c2nn[nH]n2)cc1 [Example 416, 2-butyl-4-chloro-1-((5′-(3,3-difluoropiperidin-1-yl)-2′-(2H-tetrazol-5-yl)-[1,1′-biphenyl]-4-yl)methyl)-1H-imidazole-5-carboxylic acid] | 69.0% | 115 nM | 18 nM | 29.5% | > 100000 nM | 
2 | CCCCc1ncc(C(=O)NCCO)n1Cc1ccc(-c2cc(-c3ccccc3)ccc2C(=O)O)cc1 [Example 414] | 36.4% | 505 nM | 166 nM | 21.5% | 460 nM | 
3 | CCCCc1ncc(C(=O)NC2CCCCCC2)n1Cc1ccc(-c2cc(-c3ccccc3)ccc2-c2nn[nH]n2)cc1 [Example 362] | 97.0% | 26.4 nM | 123 nM | 49.8% | 34.2 nM | 
4 | CCCCC(=O)N(Cc1ccc(-c2cc(-c3ccccc3)ccc2-c2nn[nH]n2)cc1)C1(C(=O)O)CCC(C)(C)CC1 [Example 275, 1-(N-((6′-(2H-Tetrazol-5-yl)-[1,1′:3′,1″-terphenyl]-4-yl)methyl)pentan-amido)-4,4-dimethylcyclohexanecarboxylic acid] | 71.5% | 21.5 nM | 26.6 nM | 50.9% | > 100000 nM | 
5 | CCCCC(=O)N(Cc1ccc(-c2cc(Oc3cccc(OC(F)(F)F)c3)ccc2-c2nn[nH]n2)cc1)C1(C(=O)O)CCCCC1 [Example 287] | 45.9% | 54.1 nM | 175 nM | 30.5% | > 100000 nM | 
6 | CCCCC(=O)N(Cc1ccc(-c2cc(-c3ccccc3)ccc2-c2nn[nH]n2)cc1)[C@]1(C(=O)O)CC[C@H](O)CC1 [Example 284, (1S,4S)-1-(N-((6′-(2H-Tetrazol-5-yl)-[1,1′:3′,1″-terphenyl]-4-yl)methyl)pentanamido)-4-hydroxycyclohexanecarboxylic acid] | 92.9% | 33 nM | 21.1 nM | 62.7% | 151 nM | 
7 | CCCc1nc(CC)c(C(=O)O)n1Cc1ccc(-c2cc(-c3ccccc3)ccc2-c2noc(=O)[nH]2)cc1 [Example 399] | 92.1% | 7.2 nM | 13.4 nM | 45.8% | 1170 nM | 
8 | CCOc1nc2cccc(C(=O)OC)c2n1Cc1ccc(-c2cc(-c3ccccc3)ccc2-c2noc(=O)[nH]2)cc1 [Example 316, methyl 2-ethoxy-1-((6′-(5-oxo-4,5-dihydro-1,2,4-oxadiazol-3-yl)-[1,1′:3′,1″-terphenyl]-4-yl)methyl)-1H-benzo[d]imidazole-7-carboxylate] | 97.5% | 46.2 nM | 53 nM | 51.6% | > 100000 nM | 
9 | O=C(O)c1cccc2nc(O)n(Cc3ccc(-c4cc(-c5ccccc5)ccc4-c4nn[nH]n4)cc3)c12 [Example 317] | 39.8% | 319 nM | 87.2 nM | 51.5% | 17100 nM | 
10 | CCCCc1nc(Cl)c(C(N)=O)n1Cc1ccc(-c2cc(-c3ccccc3)ccc2-c2nn[nH]n2)cc1 [Example 393, 1-((6′-(2H-tetrazol-5-yl)-[1,1′:3′,1″-terphenyl]-4-yl)methyl)-2-butyl-4-chloro-1H-imidazole-5-carboxamide] | 86.1% | 12 nM | 9.1 nM | 41.2% | 48.8 nM | 
11 | CCCCc1ncc(C(=O)NC2CCCCC2)n1Cc1ccc(-c2cc(-c3ccccc3)ccc2-c2nn[nH]n2)cc1 [Example 354] | 99.5% | 19.3 nM | 59.9 nM | 48.3% | 45.5 nM | 
12 | CCCCc1ncc(C(=O)NCc2cc(C(C)C)no2)n1Cc1ccc(-c2cc(-c3ccccc3)ccc2-c2nn[nH]n2)cc1 [Example 363] | 100.4% | 23.8 nM | 10.7 nM | 46.2% | 59.6 nM | 
13 | CCCCc1ncc(C(=O)NCCOC)n1Cc1ccc(-c2cc(-c3ccccc3)ccc2-c2nn[nH]n2)cc1 [Example 374] | 94.4% | 13.4 nM | 10.5 nM | 44.3% | 16.2 nM | 
14 | CCCCc1ncc(C(=O)NC(C)(C)COC)n1Cc1ccc(-c2cc(-c3ccccc3)ccc2-c2nn[nH]n2)cc1 [Example 361] | 61.3% | 128 nM | 97.8 nM | 29.3% | 296 nM | 
15 | CCCCc1ncc(C(=O)NC)n1Cc1ccc(-c2cc(-c3ccccc3)ccc2-c2nn[nH]n2)cc1 [Example 382] | 67.5% | 47.1 nM | 13.2 nM | 27.6% | > 100000 nM | 
16 | CCCCc1ncc(C(=O)NCCC)n1Cc1ccc(-c2cc(-c3ccccc3)ccc2-c2nn[nH]n2)cc1 [Example 372] | 78.9% | 44.8 nM | 58.8 nM | 41.7% | 73.8 nM | 
17 | CCCCc1nc(Cl)c(C(=O)O)n1Cc1ccc(-c2cc(-c3cnn(C)c3)ccc2-c2nn[nH]n2)cc1 [Example 389] | 35.3% | 189 nM | 91.8 nM | 26.7% | 2020 nM | 
18 | CCCCc1ncc(C(=O)Nc2ccncc2)n1Cc1ccc(-c2cc(-c3ccccc3)ccc2-c2nn[nH]n2)cc1 [Example 353] | 49.1% | 65.5 nM | 55 nM | 22.4% | 566 nM | 
19 | CCCC(=O)N(Cc1ccc(-c2cc(-c3ccccc3)ccc2-c2nn[nH]n2)nc1)[C@H](C(=O)O)C(C)C [Example 432] | 88.4% | 163 nM | 40.1 nM |  | 286 nM | 42.9%
20 | CCCCc1ncc(C(=O)NCc2cnccn2)n1Cc1ccc(-c2cc(-c3ccccc3)ccc2-c2nn[nH]n2)cc1 [Example 359] | 90.8% | 15.3 nM | 17.4 nM | 43.5% | 39.4 nM | 
21 | CCCCC(=O)N(Cc1ccc(-c2cc(-c3ccccc3)ccc2-c2nn[nH]n2)cc1)C1(C(=O)O)CCCCC1 [Example 272] | 84.0% | 15.2 nM | 16.5 nM | 43.5% | > 100000 nM | 
22 | CCOc1nc2cccc(C(=O)O)c2n1Cc1ccc(-c2cc(-c3cccnc3OC)ccc2C(=O)O)cc1 [Example 318] | 93.9% | 132 nM | 47.5 nM | 54.6% | 552 nM | 

From US12037324B2, “Biarylmethyl heterocycles” (Université de Montréal, priority 2016, dated 2024)
